Results from US8134015B2, “Compound inhibiting in vivo phosphorous transport and medicine containing the same” (Kyowa Hakko Kirin Co., Ltd., priority 2003, dated 2012).
Counter-ions that a name gives are not always drawn.

Target: T1, rat NaPi-2b (Rattus norvegicus, UniProt Q9JJ09)
T1 construct: expressed in transfected cells; host or cells: Xenopus oocytes injected with cRNA
T1 sequence (Q9JJ09 1-695): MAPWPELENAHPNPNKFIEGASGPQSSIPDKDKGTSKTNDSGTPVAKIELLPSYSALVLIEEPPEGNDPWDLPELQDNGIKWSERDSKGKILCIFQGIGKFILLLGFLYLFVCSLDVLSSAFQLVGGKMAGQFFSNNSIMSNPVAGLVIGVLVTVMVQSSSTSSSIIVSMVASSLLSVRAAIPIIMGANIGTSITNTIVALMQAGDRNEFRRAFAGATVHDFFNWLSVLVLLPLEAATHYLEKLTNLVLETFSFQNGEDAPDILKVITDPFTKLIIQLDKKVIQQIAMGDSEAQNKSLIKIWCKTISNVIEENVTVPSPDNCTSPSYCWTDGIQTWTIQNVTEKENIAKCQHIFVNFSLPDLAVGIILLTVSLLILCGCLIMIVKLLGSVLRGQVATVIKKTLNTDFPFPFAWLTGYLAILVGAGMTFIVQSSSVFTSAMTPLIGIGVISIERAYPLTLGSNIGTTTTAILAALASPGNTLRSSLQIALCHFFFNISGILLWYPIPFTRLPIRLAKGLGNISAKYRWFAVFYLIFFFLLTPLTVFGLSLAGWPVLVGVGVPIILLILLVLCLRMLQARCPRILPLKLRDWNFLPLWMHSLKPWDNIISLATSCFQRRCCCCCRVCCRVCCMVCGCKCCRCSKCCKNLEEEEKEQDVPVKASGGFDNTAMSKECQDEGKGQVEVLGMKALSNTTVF
Assay: Sodium-dependent phosphate uptake of Xenopus oocytes which expressed NaPi-2b (32P)
Type: cell-based
Conditions: for IC50: Xenopus oocytes expressing rat NaPi-2b, 32P radioactive phosphorus, read-out: IC50 (phosphate uptake inhibitory activity); for inhibition at 300 µM: phosphate uptake, oocytes expressing rat NaPi-2b, determined from inhibition curve
How it was run: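 Percent inhibition at 300 μM and 100 μM comes from the same inhibition curve of 32P uptake. Assay used oocytes expressing rat NaPi-2b after 2 days of culture.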

| IC50 | inhibition at 300 µM | SMILES |
| --- | --- | --- |
| 8.19 µM |  | Cc1cccc(/C=N/NC(=O)c2cc(Cl)ccc2NC(=O)c2cccc(CN(C)CCO)c2)c1 [Compound 396, N-[4-Chloro-2-(3-methyl-benzylidene-hydrazinocarbonyl)-phenyl]-3-{[(2-hydroxy-ethyl)-methyl-amino]-methyl}-benzamide] |
| 2.55 µM |  | O=C(Nc1ccccc1C(=O)N/N=C/c1cccc(F)c1)c1cccc(OC(F)(F)F)c1 [Compound 120] |
| 1.72 µM |  | COc1ccc(C(=O)Nc2scc(C)c2C(=O)N/N=C/c2ccc(C)cc2)cc1OC [Compound 519, 3,4-Dimethoxy-N-[4-methyl-3-(4-methyl-benzylidene-hydrazinocarbonyl)-thiophen-2-yl]-benzamide] |
| < 3 µM |  | COc1ccc(/C=N/NC(=O)c2cc(I)ccc2NC(=O)c2cccc(CN3CCC(N4CCCCC4)CC3)c2)cc1 [Compound 489, 3-[1,4′]Bipiperidinyl-1′-ylmethyl-N-[4-iodo-2-(4-methoxy-benzylidene-hydrazinocarbonyl)-phenyl]-benzamide] |
| 60.5 µM |  | CC(O)CN(Cc1cccc(C(=O)Nc2ccc(OCC(O)CN3CCOCC3)cc2C(=O)N/N=C/c2ccc(Cl)c(C(F)(F)F)c2)c1)CC(C)O (stereo not drawn) [Compound 954, 3-{[Bis-(2-hydroxy-propyl)-amino]-methyl}-N-[2-(4-chloro-3-trifluoromethyl-benzylidene-hydrazinocarbonyl)-4-(2-hydroxy-3-morpholin-4-yl-propoxy)-phenyl]-benzamide] |
|  | 57.9% | O=c1c2cc(Cl)ccc2nc(-c2cccc(CSCCS(=O)(=O)O)c2)n1/N=C/c1ccc(Cl)c(C(F)(F)F)c1 [Compound 703, 2-(3-{6-Chloro-3-[(4-chloro-3-trifluoromethyl-benzylidene)-amino]-4-oxo-3,4-dihydro-quinazolin-2-yl}-benzylsulfanyl)-ethanesulfonic acid] |
| 3.74 µM |  | O=C(Nc1ccccc1C(=O)N/N=C/c1ccc(F)cc1)c1ccncc1 [Compound 135, N-[2-(4-Fluoro-benzylidene-hydrazinocarbonyl)-phenyl]-isonicotinamide] |
| 3.15 µM |  | Cc1ccc(/C=N/NC(=O)c2ccccc2NC(=O)c2cccc(OC(F)(F)F)c2)cc1 [Compound 124] |
| 28.7 µM |  | CCN(CCO)Cc1ccc(C(=O)Nc2ccc(Cl)cc2C(=O)N/N=C/c2ccc(OC)cc2)cc1 [Compound 439, N-[4-Chloro-2-(4-methoxy-benzylidene-hydrazinocarbonyl)-phenyl]-4-{[ethyl-(2-hydroxy-ethyl)-amino]-methyl}-benzamide] |
| < 3 µM |  | O=C(Nc1ccc(N2CCCCC2)cc1C(=O)N/N=C/c1ccc(F)cc1)c1cccc(CN2CCC(O)CC2)c1 [Compound 872, N-[2-(4-Fluoro-benzylidene-hydrazinocarbonyl)-4-piperidin-1-yl-phenyl]-3-(4-hydroxy-piperidin-1-ylmethyl)-benzamide] |
|  | 67.3% | CCN1CC(NCc2ccc(-c3nc4ccc(Br)cc4c(=O)n3/N=C/c3ccc(OC)cc3)cc2)CN1CC [Compound 755, 6-Bromo-2-{4-[(1,2-diethyl-pyrazolidin-4-ylamino)-methyl]-phenyl}-3-[(4-methoxy-benzylidene)-amino]-3H-quinazolin-4-one] |
| 8.21 µM |  | COc1cc(/C=N/NC(=O)c2ccccc2NC(=O)c2ccc(OC)c(OC)c2)ccc1O [Compound 11, N-[2-(4-Hydroxy-3-methoxy-benzylidene-hydrazinocarbonyl)-phenyl]-3,4-dimethoxy-benzamide] |
| < 3 µM |  | CCN1CC(NCc2ccc(C(=O)Nc3ccc(Br)cc3C(=O)N/N=C/c3ccc(Cl)c(C(F)(F)F)c3)cc2)CN1CC [Compound 754, N-[4-Bromo-2-(4-chloro-3-trifluoromethyl-benzylidene-hydrazinocarbonyl)-phenyl]-4-[(1,2-diethyl-pyrazolidin-4-ylamino)-methyl]-benzamide] |
|  | 38.9% | Cc1ccc(/C=N/NC(=O)c2scc(C)c2NC(=O)c2cccc(CSCCCO)c2)cc1C [Compound 525, N-[2-(3,4-Dimethyl-benzylidene-hydrazinocarbonyl)-4-methyl-thiophen-3-yl]-3-(3-hydroxy-propylsulfanylmethyl)-benzamide] |
| 40.1 µM |  | CCN(CCO)Cc1ccc(C(=O)Nc2ccc(Cl)cc2C(=O)N/N=C/c2ccc(O)cc2)cc1 [Compound 441, N-[4-Chloro-2-(4-hydroxy-benzylidene-hydrazinocarbonyl)-phenyl]-4-{[ethyl-(2-hydroxy-ethyl)-amino]-methyl}-benzamide] |
| 0.96 µM |  | CCN(CC)CCNCc1ccc(C(=O)Nc2ccc(Br)cc2C(=O)N/N=C/c2ccc(Cl)c(C(F)(F)F)c2)cc1 [Compound 297, N-[4-Bromo-2-(4-chloro-3-trifluoromethyl-benzylidene-hydrazinocarbonyl)-phenyl]-4-[(2-diethylamino-ethylamino)-methyl]-benzamide] |
| 7.82 µM |  | O=C(Nc1ccccc1C(=O)N/N=C/c1cccc(F)c1)c1ccncc1 [Compound 134, N-[2-(3-Fluoro-benzylidene-hydrazinocarbonyl)-phenyl]-isonicotinamide] |
| 8.41 µM |  | Cc1ccc(/C=N/NC(=O)c2cc(Br)ccc2NC(=O)c2ccc(CN3CCC(CCO)CC3)cc2)cc1C [Compound 340, N-[4-Bromo-2-(3,4-dimethyl-benzylidene-hydrazinocarbonyl)-phenyl]-4-[4-(2-hydroxy-ethyl)-piperidin-1-ylmethyl]-benzamide] |
| 5.91 µM |  | COc1ccc(/C=N/NC(=O)c2c(NC(=O)c3cccc(CN4CCC(CO)CC4)c3)sc3c2CCCC3)cc1 [Compound 644, 3-(4-Hydroxymethyl-piperidin-1-ylmethyl)-N-[3-(4-methoxy-benzylidene-hydrazinocarbonyl)-4,5,6,7-tetrahydro-benzo-[b]thiophen-2-yl]-benzamide] |
| 10.7 µM |  | Cc1ccc(/C=N/NC(=O)c2cscc2NC(=O)c2cccc(CN(CC(C)O)CC(C)O)c2)cc1 (stereo not drawn) [Compound 976, 3-{[Bis-(2-hydroxy-propyl)-amino]-methyl}-N-[4-(4-methyl-benzylidene-hydrazinocarbonyl)-thiophen-3-yl]-benzamide] |
| 9.12 µM |  | COc1ccc(C(=O)Nc2ccc(Cl)cc2C(=O)N/N=C/c2cccnc2)cc1OC [Compound 111, N-[4-Chloro-2-(pyridin-3-ylmethylene-hydrazinocarbonyl)-phenyl]-3,4-dimethoxy-benzamide] |
|  | 49.4% | O=C(Nc1ccccc1C(=O)N/N=C/c1ccccc1F)c1ccccc1F [Compound 236, 2-Fluoro-N-[2-(2-fluoro-benzylidene-hydrazinocarbonyl)-phenyl]-benzamide] |
| 3.54 µM |  | O=C(Nc1ccc(Br)cc1C(=O)N/N=C/c1cccc(F)c1)c1ccc(CSc2ccncc2)cc1 [Compound 255, N-[4-Bromo-2-(3-fluoro-benzylidene-hydrazinocarbonyl)-phenyl]-4-(pyridin-4-ylsulfanylmethyl)-benzamide] |
| 2.14 µM |  | CC(O)CN(Cc1cccc(C(=O)Nc2ccc(F)cc2C(=O)N/N=C/c2ccc(Cl)c(C(F)(F)F)c2)c1)CC(C)O (stereo not drawn) [Compound 853, 3-{[Bis-(2-hydroxy-propyl)-amino]-methyl}-N-[2-(4-chloro-3-trifluoromethyl-benzylidene-hydrazinocarbonyl)-4-fluoro-phenyl]-benzamide; hydrochloride] |
